molecular target: rat EP1 receptor (Rattus norvegicus (Rat), UniProt P70597); assay: Test for confirmation of EP1 receptor antagonism: inhibition of the prostaglandin E2-induced increase in intracellular calcium concentration in rat EP1 receptor-expressing COS-1 cells; assay type: cell-based; settings: Method A: Fluo-4 NW Calcium Assay Kit, FlexStation; prostaglandin E2 10 nM; rat EP1 receptor-expressing COS-1 cells
Experimental: (1) Preparation of Rat EP1 Expression Vector
Using Rat Kidney BD Marathon-Ready cDNA (Nippon Becton Dickinson Company, Ltd.) as a template, a forward primer shown in SEQ ID NO. 1, and a reverse primer shown in SEQ ID NO. 2, a first run of PCR was carried out using KOD-Plus-Ver 2.0 (Toyobo Co., Ltd.). Further, using this amplification product as a template, a forward primer shown in SEQ ID NO. 3, and a reverse primer shown in SEQ ID NO. 4, a second run of PCR was carried out in the same manner. The amplification product obtained by the second run of PCR was incorporated into a vector (pcDNA3.1 D/V5-His-TOPO (registered trademark), Invitrogen Japan K. K.). By a conventional method, the vector containing this amplification product was introduced to E. coli (One Shot TOP10 Competent Cells, Invitrogen Corporation) to transform. This transformed E. coli was cultured in an LB agar medium for one day. After the culture, colonies were selected and cultured in an LB liquid medium containing 50 μg/mL of ampicillin. After the culture, the vector was purified using a QIAprep Spin Miniprep Kit (Qiagen K. K.). The base sequence of the insertion site of this vector (SEQ ID NO. 5) was compared with the rat EP1 base sequence (Ptger1) registered as an accession number NM_013100 in well-known database (NCBI), and as a result, they all matched except for a single base. Further, the amino acid sequence translated by the base sequence completely matched the amino acid sequence of the rat EP1 receptor registered as an NCBI accession number NP_037232. Therefore, it was confirmed that the cloned gene sequence was a base sequence of the rat EP1 receptor and the obtained amino acid sequence was that of the rat EP1 receptor. The pcDNA3.1 D/V5-His-TOPO (registered trademark) to which the nucleic acid shown in SEQ ID NO. 5 had been inserted was taken as a rat EP1-expressing vector.
(2) Preparation of Rat EP1 Receptor-Expressing Cells
COS-1 cells (Dainippon Sumitomo Pharma Co., Ltd.) were cultured until it reached confluence in an incubator at 37° C. under a 5% CO2 gas condition, using a D-MEM liquid medium (high glucose and L-glutamine contained, Invitrogen Corporation) to which a penicillin-streptomycin solution (Invitrogen Corporation, final concentration: 100 U/mL as benzylpenicillin; 100 μg/mL as streptomycin) as an antibiotic, MEM nonessential amino acids (Invitrogen Corporation, final Concentration: 0.1 mM), and fetal calf serum (Sanko Junyaku Co., Ltd., final concentration: 10%) were added.
The cells that had reached confluence were stripped with 0.05% trypsin/0.53 mM EDTA 4Na (Invitrogen Japan K. K.) and resuspended in the liquid medium. The resuspended cells were diluted and cultured in the liquid medium at a spread ratio from 1:4 to 1:8.
The cells that had reached confluence were stripped with 0.05% trypsin/0.53 mM EDTA.4Na, and resuspended in a D-MEM liquid medium (high glucose and L-glutamine contained, Invitrogen Corporation) to which an MEM nonessential amino acid (final concentration: 0.1 mM) and fetal calf serum (final concentration: 10%) were added. In each well of a Poly D-lysine-coated 96-well microplate (BD BioCoat (registered trademark), Nippon Becton Dickinson Company, Ltd.), this resuspended cell suspension culture was prepared to be 5×10^4 cells/well in 100 μL of the liquid medium, and seeded thereon. After seeding, the cells were cultured in an incubator at 37° C. under a 5% CO2 gas condition. At a point when the cells for introduction of a rat EP1-expressing vector were adhered (about 2 hours after seeding), introduction of the rat EP1-expressing vector was carried out in the following order.
For introduction of the rat EP1-expressing vector, Lipofectamine 2000 (Invitrogen Japan K. K.) was used. […]

Sequence of rat EP1 receptor (P70597 whole entry): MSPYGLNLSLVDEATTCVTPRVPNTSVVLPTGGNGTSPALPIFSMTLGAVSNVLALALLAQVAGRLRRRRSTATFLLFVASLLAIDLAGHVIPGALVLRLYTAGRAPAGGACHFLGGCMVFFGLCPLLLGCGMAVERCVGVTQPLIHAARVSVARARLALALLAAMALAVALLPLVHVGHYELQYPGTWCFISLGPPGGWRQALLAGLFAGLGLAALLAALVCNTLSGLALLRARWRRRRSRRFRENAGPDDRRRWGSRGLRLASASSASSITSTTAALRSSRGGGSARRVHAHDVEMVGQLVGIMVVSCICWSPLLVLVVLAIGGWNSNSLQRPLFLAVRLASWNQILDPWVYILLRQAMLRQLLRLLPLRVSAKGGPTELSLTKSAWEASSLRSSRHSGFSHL

Point of comparison: `Cc1ccc2c(c1)cc(-c1ccccc1)n2Cc1cccc(C(=O)O)c1` [Example 9-13, 3-(5-methyl-2-phenylindol-1-ylmethyl)benzoic acid], IC50 89 nM. Against it:
- 3-(5-methyl-2-phenylindol-1-yl)carboxylic acid [Comparative Example 1, reference compound] — higher, > 10000 nM
- COc1ccc2c(c1)cc(-c1ccccc1)n2Cc1cccc(C(=O)O)c1 [Example 9-1, 3-(5-methoxy-2-phenylindol-1-ylmethyl)benzoic acid] — 4.2-fold lower, 21 nM
- COc1ccc2c(c1)cc(C(C)C)n2Cc1cccc(C(=O)O)c1 [Example 9-15, 3-(2-isopropyl-5-methoxyindol-1-ylmethyl)benzoic acid] — 4-fold lower, 22 nM
- COc1ccc2c(c1)cc(-c1ccsc1)n2Cc1cccc(C(=O)O)c1 [Example 9-25, 3-(5-methoxy-2-thiophen-3-ylindol-1-ylmethyl)benzoic acid] — 2.5-fold lower, 35 nM
- COc1ccc2c(c1)cc(-c1ccoc1)n2Cc1cccc(C(=O)O)c1 [Example 9-32, 3-(2-furan-3-yl-5-methoxyindol-1-ylmethyl)benzoic acid] — 8.1-fold lower, 11 nM
- COc1ccc2c(c1)cc(-c1ccsc1)n2Cc1cccc(C(=O)O)n1 [Example 9-35, 6-(5-methoxy-2-thiophen-3-ylindol-1-ylmethyl)pyridine-2-carboxylic acid] — 3.9-fold lower, 23 nM
- COc1cc2cc(-c3ccccc3)n(Cc3cccc(C(=O)O)c3)c2cc1F [Example 9-43, 3-(6-fluoro-5-methoxy-2-phenylindol-1-ylmethyl)benzoic acid] — 6.8-fold lower, 13 nM
- COc1ccc2c(c1)cc(-c1ccccc1)n2Cc1cccc(C(=O)O)c1F [Example 9-44, 2-fluoro-3-(5-methoxy-2-phenylindol-1-ylmethyl)benzoic acid] — 4.7-fold lower, 19 nM

same assay, conditions: Method B: Calcium kit II Fluo 4, FDSS 7000; prostaglandin E2 10 nM; rat EP1 receptor-expressing COS-1 cells

Point of comparison: `COc1cc2cc(-c3cccnc3)n(Cc3cccc(C(=O)O)n3)c2cc1Cl` [Example 25-42, 6-(6-chloro-5-methoxy-2-pyridin-3-ylindol-1-ylmethyl)pyridine-2-carboxylic acid], IC50 28 nM. Against it:
- COc1cc2cc(-c3ccccc3)n(Cc3cccc(C(=O)O)n3)c2cc1Cl [Example 25-9, 6-(6-chloro-5-methoxy-2-phenylindol-1-ylmethyl)pyridine-2-carboxylic acid] — 2.4-fold higher, 67 nM
- COc1ccc2c(c1)cc(-c1cccc(F)c1)n2Cc1ccc(C(=O)O)o1 [Example 25-11, 5-[2-(3-fluorophenyl)-5-methoxyindol-1-ylmethyl]furan-2-carboxylic acid] — within 1.5-fold, 34 nM
- COc1ccc2c(c1)cc(-c1ccccc1)n2Cc1csc(C(=O)O)n1 [Example 25-12] — 2-fold higher, 55 nM
- COc1ccc2c(c1)cc(-c1cccnc1)n2Cc1cccc(C(=O)O)c1 [Example 25-13, 3-(5-methoxy-2-pyridin-3-ylindol-1-ylmethyl)benzoic acid] — within 1.5-fold, 38 nM
- COc1cc2cc(-c3ccccc3)n(Cc3cccc(C(=O)O)n3)c2cc1C [Example 25-16, 6-(5-methoxy-6-methyl-2-phenylindol-1-ylmethyl)pyridine-2-carboxylic acid] — within 1.5-fold, 39 nM
- COc1ccc2c(c1)cc(-c1ccccc1F)n2Cc1cccc(C(=O)O)c1 [Example 25-17, 3-[2-(2-fluorophenyl)-5-methoxyindol-1-ylmethyl]benzoic acid] — within 1.5-fold, 32 nM
- COc1ccc2c(c1)cc(-c1cccc(F)c1)n2Cc1cccc(C(=O)O)c1 [Example 25-18, 3-[2-(3-fluorophenyl)-5-methoxyindol-1-ylmethyl]benzoic acid] — 1.6-fold lower, 17 nM
- COc1ccc2c(c1)cc(-c1ccc(F)cc1)n2Cc1cccc(C(=O)O)c1 [Example 25-19, 3-[2-(4-fluorophenyl)-5-methoxyindol-1-ylmethyl]benzoic acid] — within 1.5-fold, 36 nM
- COc1cc2cc(-c3cccc(F)c3)n(Cc3cccc(C(=O)O)n3)c2cc1Cl [Example 25-23, 6-[6-chloro-2-(3-fluorophenyl)-5-methoxyindol-1-ylmethyl]pyridine-2-carboxylic acid] — within 1.5-fold, 32 nM
- COc1cc2cc(-c3ccccc3)n(Cc3ccc(C(=O)O)o3)c2cc1Cl [Example 25-26, 5-[6 chloro-5-methoxy-2-phenylindol-1-ylmethyl]furan-2-carboxylic acid] — 1.6-fold lower, 17 nM
- COc1cc2cc(-c3ccccc3F)n(Cc3cccc(C(=O)O)n3)c2cc1F [Example 25-28, 6-[6-fluoro-2-(2-fluorophenyl)-5-methoxyindol-1-ylmethyl]pyridine-2-carboxylic acid] — the same, 28 nM
- COc1cc2cc(-c3cccc(F)c3)n(Cc3cccc(C(=O)O)n3)c2cc1F [Example 25-29, 6-[6-fluoro-2-(3-fluorophenyl)-5-methoxyindol-1-ylmethyl]pyridine-2-carboxylic acid] — within 1.5-fold, 26 nM
- COc1cc2cc(-c3ccc(F)cc3)n(Cc3cccc(C(=O)O)n3)c2cc1F [Example 25-31, 6-[6-fluoro-2-(4-fluorophenyl)-5-methoxyindol-1-ylmethyl]pyridine-2-carboxylic acid] — within 1.5-fold, 33 nM
- COc1cc2cc(-c3cccnc3)n(Cc3cccc(C(=O)O)n3)c2cc1F [Example 25-33, 6-(6-fluoro-5-methoxy-2-pyridin-3-ylindol-1-ylmethyl)pyridine-2-carboxylic acid] — 2.1-fold higher, 58 nM
- COc1cc2cc(-c3ccsc3)n(Cc3cccc(C(=O)O)n3)c2cc1Cl [Example 25-34, 6-(6-chloro-5-methoxy-2-thiophen-3-ylindol-1-ylmethyl)pyridine-2-carboxylic acid] — 1.9-fold higher, 54 nM
- COc1cc2cc(-c3ccccc3)n(Cc3ccc(C(=O)O)o3)c2cc1C [Example 25-36, 5-[5-methoxy-6-methyl-2-phenylindol-1-ylmethyl]furan-2-carboxylic acid] — within 1.5-fold, 35 nM
- COc1cc2cc(-c3ccoc3)n(Cc3cccc(C(=O)O)n3)c2cc1Cl [Example 25-37, 6-(6-chloro-2-furan-3-yl-5-methoxyindol-1-ylmethyl)pyridine-2-carboxylic acid] — within 1.5-fold, 27 nM
- COc1cc2cc(-c3ccoc3)n(Cc3ccc(C(=O)O)o3)c2cc1Cl [Example 25-38, 5-(6-chloro-2-furan-3-yl-5-methoxyindol-1-ylmethyl)furan-2-carboxylic acid] — within 1.5-fold, 22 nM
- COc1cc2cc(-c3ccsc3)n(Cc3cccc(C(=O)O)n3)c2cc1C [Example 25-39, 6-(5-methoxy-6-methyl-2-thiophen-3-ylindol-1-ylmethyl)pyridine-2-carboxylic acid] — within 1.5-fold, 37 nM
- COc1ccc2c(c1)cc(-c1cc(F)ccc1F)n2Cc1cccc(C(=O)O)n1 [Example 25-41, 6-[2-(2,5-difluorophenyl)-5-methoxyindol-1-ylmethyl)pyridine-2-carboxylic acid] — within 1.5-fold, 25 nM
- CCC(C)c1cc2cc(OC)c(Cl)cc2n1Cc1cccc(C(=O)O)n1 (centres unmarked) [Example 25-44, 6-[6-chloro-5-methoxy-2-(1-methylpropyl)indol-1-ylmethyl]pyridine-2-carboxylic acid] — 1.8-fold higher, 51 nM

same assay, conditions: as shown in Table 49

For “3-(5-methyl-2-phenylindol-1-yl)carboxylic acid [Comparative Example 1, reference compound]”, the “EP1 receptor antagonism (in words)” value was “do not exhibit EP1 receptor antagonism”.
